The values that follow come from patent publication US20060198832A1, “Peptide drugs for chronic lymphocytic leukemia (CLL) and other cancers” (priority 2004, published 2006).

Where a SMILES comes first, the peptide text is derived from it. Bridges are numbered along the chain shown (N, C = ends). Roman numbers before positions name the chains, in order. Where no end group is shown, it is not given here. [ ]: non-standard residue; d: D form. Ahx = NCCCCCC(=O)O

Series [1] has as its system Bcl-2. The series can be described thus: BD Cytometric Bead Assay of Bcl-2 levels in peptide treated CLL cells. Format: cell-based, human. The following applies: TJK160 and TJK357 CLL patient cells, incubated with peptide for four hours, FIG. 5. The protocol:
TJK160 and TJK357 CLL patient cells were treated with the modified BAD peptide SEQ ID NO: 6 or with control peptides SEQ ID NO: 29 and SEQ ID NO: 30 essentially as described above. To determine the levels of Bcl-2 in each of the peptide treated CLL samples, a BD™ Cytometric Bead Assay (BD CBA; BD Biosciences) was used to quantitatively measure active caspase-3, cleaved PARP and Bcl-2 levels in a single sample. In this assay, soluble analytes are measured using amplified fluorescence detection and flow cytometry, with each bead in a CBA providing a capture surface for a specific protein and being analogous to an individually coated well in an ELISA plate. A single bead population with a distinct fluorescence intensity is coated with a capture antibody specific for active caspase-3 protein, cleaved PARP protein or Bcl-2 protein and subsequently resolved in the FL3 channel of a BD FACSTM brand flow cytometer. The capture bead, PE-conjugated detection antibody, and cell lysate standard or test samples are incubated together to form sandwich complexes and analyzed using BD CBA Analysis Software. Cells were lysed in 1× CBA Cell Lysis Buffer supplemented with Protease Inhibitor Cocktail according to the manufacturer's protocol. Human active caspase-3, cleaved PARP and Bcl-2 lysate standards were reconstituted in deionized water at room temperature for 15 minutes. The standard was diluted by serial dilutions using assay diluent according to the manufacturer's protocol. Capture beads were vortexed before use, and 50 μl of capture beads were transferred to each assay tube. Standard dilutions and test samples were added to the appropriate sample tubes (50 μl/tube) and incubated at room temperature for one hour. […] After addition of 300 μl of Wash Buffer, samples were analyzed by the BD FACScan or BD FACSCalibur. Samples were analyzed by the use of BD CellQuest Software, and data were acquired by the use of the BD CBA Software. […]

A further series concerns CLL cells. The series can be described thus: CLL cell viability, cell permeable peptides added directly to culture without electroporation. Format: cell-based, human. The following applies: for change in viability: TJK197 patient CLL cells, FIG. 4. The text has this:
Peripheral blood mononuclear cells (PBMC) from patients with chronic lymphocytic leukemia (CLL) were obtained from the CLL Research Consortium (CRC) tissue bank. Briefly, heparinized peripheral blood was obtained from patients diagnosed with B-CLL according to standard criteria (Chenson et al., Blood 87:4990-4997 (1996)). Lymphocytes were isolated by Ficoll density-gradient centrifugation and verified by immunofluorescence flow cytometry to be composed of greater than 95% CD5/CD19/CD23 triple positive B cells. CLL samples were incubated at 1×10^6 cells/ml in RPMI media supplemented with 10% FBS (fetal bovine serum) and 1 mM L-glutamine and antibiotics (penicillin/streptomycin) at 37° C. with 5% CO2 for 24 hours. CLL cells were electroporated with a dimethyl sulfoxide (DMSO) control or peptides essentially as described in Eksioglu-Demiralp et al., J. Immunol. Methods 275:41-56 (2003), and Schimmer et al., Cancer Res. 63:1242-1248 (2003).
For evaluation of apoptosis, at least 5×10^5 cells were recovered by centrifugation and double-stained with Annexin V-FITC, an early marker of apoptosis, and propidium iodide (PI), a nucleic acid-binding vital dye, followed by flow-cytometric analysis using the FL-1 and FL-3 channels of a Becton Dickinson flow cytometer (FACSort; San Jose, Calif.).
The wild type and modified BAD peptides fused to poly-arginine cell penetration sequences shown in Table 5 were synthesized by standard solid phase synthesis. CLL cell viability assays were performed as described above except that cell permeable peptides SEQ ID NOS: 28, 6 and 29 and the control, non-permeable peptide SEQ ID NO: 3 (see Table 5) were added directed to CLL cells in culture without electroporation.

For series [2], the system named is chronic lymphocytic leukemia (CLL) cells. As to the kind of experiment: viability/apoptosis of CLL cells electroporated with peptides (Annexin V-FITC/PI flow cytometry). Format: cell-based, human. The text has this:
Peripheral blood mononuclear cells (PBMC) from patients with chronic lymphocytic leukemia (CLL) were obtained from the CLL Research Consortium (CRC) tissue bank. Briefly, heparinized peripheral blood was obtained from patients diagnosed with B-CLL according to standard criteria (Chenson et al., Blood 87:4990-4997 (1996)). Lymphocytes were isolated by Ficoll density-gradient centrifugation and verified by immunofluorescence flow cytometry to be composed of greater than 95% CD5/CD19/CD23 triple positive B cells. […] CLL cells were electroporated with a dimethyl sulfoxide (DMSO) control or peptides essentially as described in […] et al., J. Immunol. Methods 275:41-56 (2003), and […] et al., Cancer Res. 63:1242-1248 (2003). For evaluation of apoptosis, at least 5×10^5 cells were recovered by centrifugation and double-stained with Annexin V-FITC, an early marker of apoptosis, and propidium iodide (PI), a nucleic acid-binding vital dye, followed by flow-cytometric analysis using the FL-1 and FL-3 channels of a Becton Dickinson flow cytometer (FACSort; San Jose, Calif.).
A general note: In flow cytometry, cells or beads pass a laser one at a time.

A further series concerns 697-neo cells. The series can be described thus: cell viability assay in 697-neo cells. Format: cell-based. The following applies: low Bcl-2, FIG. 6. The protocol:
(§1) The peptides were tested in cell viability assays essentially as described above in Examples I and II. Experiments were carried out in 697-neo and 697-Bcl-2 cells. 697 cells are from a cell line of preB leukemic cells. 697-Bcl-2 cells have been engineered to express high levels of Bcl-2. AML-349 and AML-728 are myeloblasts (verified by FACS analysis via CD34-positivity) that were isolated from respective patients with acute myelogenous leukemia (AML).

In series [3] the test system is acute myelogenous leukemia (AML) cells. As to the kind of experiment: cell viability/apoptosis in patient AML cells. In kind it is cell-based, human. The protocol: as §1
For the next series, the target named is Bcl-2 family Bcl-2/x1 (Homo sapiens, UniProt P10415). As to the kind of experiment: binding of penetratin-linked peptides to Bcl-2 (method not described).
Bcl-2 family Bcl-2/x1, sequence (P10415 1-205): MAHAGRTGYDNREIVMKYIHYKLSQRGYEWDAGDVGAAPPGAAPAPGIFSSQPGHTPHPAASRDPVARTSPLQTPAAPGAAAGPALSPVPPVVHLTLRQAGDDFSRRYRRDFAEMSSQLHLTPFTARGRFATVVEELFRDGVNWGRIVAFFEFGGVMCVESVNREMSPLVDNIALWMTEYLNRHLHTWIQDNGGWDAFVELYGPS
Series [4] deals with T1, Bcl-2 (UniProt P10415 1-239, limits assumed).
T1 construct: also called Bcl-2 protein
T1 sequence (P10415 whole entry): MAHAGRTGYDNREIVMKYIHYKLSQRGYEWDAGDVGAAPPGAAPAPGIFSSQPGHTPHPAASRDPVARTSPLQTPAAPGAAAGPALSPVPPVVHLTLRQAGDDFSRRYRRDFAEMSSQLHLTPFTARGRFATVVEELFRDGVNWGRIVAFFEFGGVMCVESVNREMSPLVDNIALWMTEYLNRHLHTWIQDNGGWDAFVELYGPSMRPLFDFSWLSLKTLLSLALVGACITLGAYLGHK
The series can be described thus: inferred from cell viability of 697-neo against 697-Bcl2 cells.

For the molecule `CSCC[C@H](NC(=O)[C@H](CCCNC(=N)N)NC(=O)[C@H](CCCNC(=N)N)NC(=O)[C@H](CC(C)C)NC(=O)[C@H](CCC(=O)O)NC(=O)[C@H](CCCNC(=N)N)NC(=O)CNC(=O)[C@H](Cc1ccc(O)cc1)NC(=O)[C@H](CCCNC(=N)N)NC(=O)[C@H](CCC(N)=O)NC(=O)[C@H](C)NC(=O)[C@H](C)NC(=O)[C@H](Cc1c[nH]c2ccccc12)NC(=O)[C@H](CC(C)C)NC(=O)[C@@H](N)CC(N)=O)C(=O)N[C@@H](C)C(=O)N[C@@H](CC(=O)O)C(=O)N[C@@H](CCC(=O)O)C(=O)N[C@@H](Cc1ccccc1)C(=O)N[C@H](C(=O)N[C@@H](CC(=O)O)C(=O)N[C@@H](C)C(=O)N[C@@H](Cc1ccccc1)C(=O)N[C@@H](CCCCN)C(=O)N[C@@H](CCCCN)C(=O)N[C@@H](CS)C(=O)NCCCCCC(=O)N[C@H](CCCNC(=N)N)C(=O)N[C@H](CCCNC(=N)N)C(=O)N[C@H](CCCNC(=N)N)C(=O)N[C@H](CCCNC(=N)N)C(=O)N[C@H](CCCNC(=N)N)C(=O)N[C@H](CCCNC(=N)N)C(=O)N[C@H](CCCNC(=N)N)C(=O)N[C@H](CCCNC(=N)N)C(=O)O)C(C)C` [SEQ ID NO: 6] (H-NLWAAQRYGRELRRMADEFVDAFKKC[Ahx][dR][dR][dR][dR][dR][dR][dR][dR]-OH; N-terminus and C-terminus assumed), the “intracellular levels of Bcl-2” value in the series on Bcl-2 [1] is “significant reduction in intracellular levels of Bcl-2”. Besides, the “cell viability, dose response” value with CLL cells (patient TJK379 CLL cells, FIG. 3) is “dose-dependent decrease in cell viability”. The percentage cell viability result in the series on CLL cells (patient TJK379 CLL cells, as little as 15 μM peptide) is given as “dramatically reduced”.
As for “AVPIAQK-Ahx-(DArg)8 (AVPIAQK[Ahx][dR][dR][dR][dR][dR][dR][dR][dR]) [SEQ ID NO: 30, control peptide with poly(DArg)]”, the “intracellular levels of Bcl-2” value in the series with Bcl-2 [1] is listed as “not observed”.
In turn, “NLWAAQRYGREARRMAAEFVDAFKK [SEQ ID NO: 4]” had a cell viability (Induction of Apoptosis in CLL Cells), patient sample JCB 178 in series [2] (CLL patient sample JCB 178, peptide electroporated) of 38%. In addition, in series [2] (CLL patient sample MA G15, peptide electroporated), the cell viability (Induction of Apoptosis in CLL Cells), patient sample MA G15 was determined as 20%. The molecule further yielded a cell viability (Induction of Apoptosis in CLL Cells), patient sample TJK 328 in series [2] (CLL patient sample TJK 328, peptide electroporated) of 26%. In addition, in series [2] (CLL patient sample TJK 340 #1, peptide electroporated), the cell viability (Induction of Apoptosis in CLL Cells), patient sample TJK 340 #1 turned out to be 46%. The cell viability (Induction of Apoptosis in CLL Cells), patient sample TJK 340 #2 in series [2] (CLL patient sample TJK 340 #2, peptide electroporated) is 45%. The molecule also had a cell viability (Induction of Apoptosis in CLL Cells), patient sample TJK 375 in series [2] (CLL patient sample TJK 375, peptide electroporated) of 48%. Also, the cell viability (Induction of Apoptosis in CLL Cells), Av. in series [2] (average of the five preceding patient sample columns, peptide electroporated) came to 41%. In series [2] (electroporated peptide, FIG. 2), the “cell viability of CLL cells” value was “minimal or insignificant changes in viability”. In addition, the “cell viability in all the patient CLL samples” value in series [2] (electroporated peptide, summary of Table 4) is given as “minimally effected”.
“NLWAAQRYGREARRMAAEFVDAFKKC-Ahx-(DArg)8 (NLWAAQRYGREARRMAAEFVDAFKKC[Ahx][dR][dR][dR][dR][dR][dR][dR][dR]) [SEQ ID NO: 29, control BAD peptide with poly(DArg)]”: the “intracellular levels of Bcl-2” value in the series with Bcl-2 [1] is “not observed”. The change in viability result in the series on CLL cells was “no change in viability”.
In the case of “NLWAAQRYGRELRRMSDEFVDSFKKC-Ahx*-(DArg)8 (NLWAAQRYGRELRRMSDEFVDSFKKC[Ahx][dR][dR][dR][dR][dR][dR][dR][dR]) [SEQ ID NO: 28]”, the change in viability entry in the series on CLL cells is recorded as “no change in viability”. The “effect on cell viability” value in the series with CLL cells (patient TJK379 CLL cells, even at 50 μM) is “negligible effect”. Also, the “cell viability of cancer cells (concluding statement)” value in the series on CLL cells (poly-arginine fused peptide, CLL cells) was “dramatically reduce cell viability”.
For the molecule “acetyl-NLWAAQRYGRELRRMADEFVDAFKKC-CRQIKIWFQNRRMKWKK-amide [2336] (D-residues; cyclised or stapled) [compound 2336]”, the “activity in reducing cell viability” value in the series with 697-neo cells is on record as “significantly less active than the 2335 peptide”. In addition, the “induction of apoptosis / killing” value in series [3] (AML cells of patient AML-349, FIG. 9) was “showed less killing”. Also, the induction of apoptosis result in series [3] (AML cells of patient AML-728, FIG. 8) is given as “does not”. Further, in the series with Bcl-2 family Bcl-2/x1, the “binding to Bcl-2” value is “does not bind Bcl-2 family Bcl-2/x1”.

B1: 2335 peptide, acetyl-NLWAAQRYGRELRRMADEFVDAFKKC-CRQIKIWFQNRRMKWKK-amide (SEQ ID NO: 31) (peptide)
peptide 1: Ac-NLWAAQRYGRELRRMADEFVDAFKKC
peptide 2: CRQIKIWFQNRRMKWKK-NH2
modifications: disulfide I:26-II:1
notes: C-C is a disulfide between two peptides, so it is written here as two chains; also called Bad S/A peptide disulfide linked to penetratin; BAD-BH3 peptide
As for B1, in the series with Bcl-2 [4], the binding result was “binds”.
